Experiment [1] in a line: Blood (serum) analysis, Example B6. The format is in vivo, mouse. Particulars: 14th day after operation, high-fat diet. The procedure:
Each C57BL/6J (SLC, male, 7 weeks old) was allowed to freely eat High-Fat Diets with 60 cal % Fat (Research Diets, Inc.) and freely drink tap water. The body weight was measured every week. After 10 weeks, the mice were divided into 4 groups such that the average body weight was equivalent among the groups (n=8). The breeding environment was set to room temperature of 23±2° C., a humidity of 55±10%, and a light period of 7 a.m. to 7 p.m.
A 1/13 diluted solution of Somnopentyl was intraperitoneally administered at 10 mL/kg body weight, and then, an analgesic pentazocine was subcutaneously injected at 1 mg/kg body weight. After shaving of the back, an osmotic pump Alzet (DURECT Corp.) filled with the agents given below was implanted to thereby continuously administer the agents.
Group 2: PPARγ activator (rosiglitazone (Rosi); 5 mg/kg body weight/day)+Smad3 inhibitor (SIS3; 5 mg/kg body weight/day)
Group 3; β3 adrenaline receptor activator (CL316,243; 0.1 mg/kg body weight/day)
Group 4; PPARγ activator (rosiglitazone (Rosi); 5 mg/kg body weight/day)+Smad3 inhibitor (SIS3; 5 mg/kg body weight/day)+β3 adrenaline receptor activator (CL316,243; 0.1 mg/kg body weight/day)
Anatomy was performed on the 14th day after the operation. Blood was collected from the abdominal vena cava under isoflurane anesthesia. Then, each tissue shown below was collected and the weight of the tissue was measured. The significant difference was tested using a multiple comparison test by the Turkey-Kramer method (different letters indicate significant difference with P<0.05).
Serum from the blood obtained by the anatomy described above was subjected to componential analysis using commercially available measurement kits described below.
Adiponectin: adiponectin ELISA kit (Otsuka Pharmaceutical Co., Ltd.)
Insulin: insulin measurement kit (Morinaga Institute of Biological Science, Inc.)
Glucose: N-Assay Glu-UL (Nittobo Medical Co., Ltd.)
Total cholesterol: N-Assay L T-CHO-H (Nittobo Medical Co., Ltd.)
Triglyceride: N-Assay TG-H (Nittobo Medical Co., Ltd.)
NEFA: NEFA-HA Test Wako (Wako Pure Chemical Industries, Ltd.)

The next experiment has as its system UCP-1. The experiment is described as follows: UCP-1 expression-inducing action in rat preadipocytes (quantitative PCR), Example B1. It counts as cell-based. As for the experimental part:
The abdominal subcutaneous fat tissues of a Wistar-rat (male, 8 weeks old) were chopped with a surgical knife in a collagenase buffer (0.05% collagenase+4% BSA in Hank's buffer), and then, the chopped tissues were incubated at 37° C. for 15 minutes while shaken. After addition of an appropriate amount of a medium (high glucose DMEM (Invitrogen Corp.)+10% fetal, bovine serum (FBS) (AusGeneX PTY LTD.)+100 units/mL penicillin+[…] streptomycin (Invitrogen Corp.)), the obtained cell suspension was centrifuged at 1,000 rpm for 5 minutes. The supernatant was removed to obtain pellets (SVF: stromal vascular fraction). The SVF was suspended in a DMEM (+10% FBS+penicillin+streptomycin) medium, inoculated to a T-175 flask, cultured for 4 days, and used as preadipocytes.
The preadipocytes were inoculated to a 12-well plate coated with type I collagen. On the next day, the PPARγ activator (rosiglitazone (Rosi) (Wako Pure Chemical Industries, Ltd.), final concentration: 1 μM) and/or the Smad3 inhibitor (SIS3 (Sigma-Aldrich Corp.), final concentration: 10 μM) was added thereto. After culture for 7 days, the β3 adrenaline receptor activator (norepinephrine (NE) (Wako Pure Chemical Industries, Ltd.), final concentration: 1 μM)) was added thereto, and the cells were cultured for 2 hours, then washed with PBS, and recovered.
Total RNA was extracted according to a standard method using RNeasy Mini Kit (Qiagen N.V.). The total RNA was reverse-transcribed according to a standard method using High Capacity RNA-to-cDNA Kit (Applied Biosystems by Life Technologies).
Quantitative PCR was performed with the obtained cDNA (30 ng/well) as a template using 7500 Fast Real-Time PCR System (Applied Biosystems by Life Technologies). The expression level of each gene was corrected with a 36B4 gene expression level as an internal standard. Control excluded the agents described above.
The preadipocytes (n=3) obtained as described above were inoculated to a 12-well plate coated with type I collagen. On the next day, the PPARγ activator (rosiglitazone (Rosi) (Wako Pure Chemical Industries, Ltd.) or pioglitazone (Wako Pure Chemical Industries, Ltd.); 1 μM) and the Smad3 inhibitor (SIS3 (Sigma-Aldrich Corp.), 10 μM) were added thereto. After culture for 7 days, the cells were treated with the β3 adrenaline receptor activator (norepinephrine (Wako Pure Chemical Industries, Ltd.), 1 μM) for 2 hours and then recovered.
The preadipocytes were collected by trypsin treatment and transfected with siRNA against each Smad by electroporation using Neon transfection System. (Invitrogen Corp.). The preadipocytes (3×10^5 cells) were transfected with 50 pmol of the siRNA (Life Technologies) under conditions of 1150 V/20 ms/3 pulses, suspended in a DMEM (+10% FBS+100 units/mL penicillin+[…] streptomycin) medium, and then inoculated to a 12-well plate coated with type I collagen. After 6 hours, rosiglitazone was added thereto, and the cells were cultured with the medium replaced with fresh one every day. Four days after the inoculation, the cells were treated with norepinephrine for 2 hours and then recovered, and the UCP-1 expression level was analyzed by using RT-PCR. For a control, rosiglitazone, SIS3, and norepinephrine were added in the same approach as above to cells transfected with random siRNA, followed by analysis.
The preadipocytes (n=3) obtained as described above were inoculated to a 12-well plate coated with type I collagen. On the next day, the PPARγ activator (rosiglitazone (Rosi) (Wako Pure Chemical Industries, Ltd.), 10 μM) and the Smad3 inhibitor (SIS3 (Sigma-Aldrich Corp.) or SB431542 (Sigma-Aldrich Corp.); 10 μM) were added thereto. After culture for 7 days, the cells were treated with the β3 adrenaline receptor activator (norepinephrine (Wako Pure Chemical Industries, Ltd.), 1 μM) for 2 hours and then recovered.
The preadipocytes (n=3) were inoculated to a 12-well plate coated with type I collagen. […]

In another experiment the target is T1, human TGR5 (Homo sapiens, UniProt Q8TDU6).
T1 construct: expressed in transfected cells; host or cells: HEK293
T1 sequence (Q8TDU6 1-330): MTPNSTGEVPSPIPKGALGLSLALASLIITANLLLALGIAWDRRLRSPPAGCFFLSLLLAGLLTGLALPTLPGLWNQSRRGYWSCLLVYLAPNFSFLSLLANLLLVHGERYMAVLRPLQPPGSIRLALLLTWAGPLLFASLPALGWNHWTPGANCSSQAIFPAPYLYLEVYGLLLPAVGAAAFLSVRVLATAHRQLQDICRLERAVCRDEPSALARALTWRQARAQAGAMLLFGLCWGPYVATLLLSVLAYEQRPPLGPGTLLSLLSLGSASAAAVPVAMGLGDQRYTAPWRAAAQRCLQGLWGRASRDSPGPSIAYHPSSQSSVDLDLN
The experiment is described as follows: TGR5-activating action, CRE luciferase reporter in HEK293 cells, Reference Example 3. It counts as cell-based. Particulars: material 0.001%, 12 to 18 hours; relative to control defined as 1; FIG. 22. The procedure:
HEK293 cells were inoculated at 1.0×10^5 cells/well to a 24-well plate and cultured in a DMEM medium containing 5% charcoal-treated FBS for 1 day. Then, the cells were transfected with 200 ng/well of a firefly luciferase reporter vector pGL4.29[luc2P/CRE/Hygro](Promega Corp.) containing a cAMP-responsive element (CRE), 40 ng/well of a human TGR5 expression vector hTGR5 (pcDNA3.1+), and 80 ng/well of phRL-TK (Renilla luciferase vector for gene, transfection efficiency correction) using Superfect transfection reagent (Qiagen N.V.). After 3 hours, the medium was replaced with a DMEM medium containing 5% charcoal-treated […]. After another 4 hours, each material shown in Table 4 below was added thereto at a final concentration of 0.001%. 12 to 18 hours thereafter, the luciferase activities were measured using DualGlo luciferase assay system (Promega Corp.). The TGR5-activating action was evaluated by correcting the firefly luciferase activity with the Renilla luciferase activity. The TGR5-activating action was indicated by relative values to the TGR5 activity in a control defined as 1.
In general terms: In a reporter assay the amount or activity of a reporter protein is the signal.

For the next experiment, the system named is Smad3. Put plainly: TGF-β stimulation-responsive Smad3 phosphorylation in HEK293 cells (Western blotting), Reference Example 1. To be noted: material 0.002% (luteolin 2 μM) or 0.01% (luteolin 10 μM), 2 hours, then 0.03 μg/mL TGF-β 20 minutes, FIG. 20. The format is cell-based. As for the experimental part:
HEK293 cells were inoculated at 3×10^5 cells/well to a 6-well dish and cultured overnight in DMEM containing 5% charcoal-treated FBS. On the next day, the medium was replaced with serum-free DMEM supplemented with each material shown in Table 2 below at a final concentration of 0.002% (luteolin: 2 μM) (low-concentration sample) or a final concentration of 0.01% (luteolin: 10 μM) (high-concentration sample). After 2 hours, 0.03 μg/mL TGF-β was added to each well, and the cells were incubated for 20 minutes. After removal of the medium, the resulting cells were washed with PBS and then recovered. The recovered cells were added with Lysis buffer and well homogenized. The cells were left to stand for 15 minutes on ice and then ultrasonically disrupted, and a supernatant centrifuged at 12,000 rpm at 4° C. for 10 minutes was obtained as a protein solution. A prepared sample containing […] of the protein and a ¼ volume of 4×SDS Sample buffer (Novagen) per lane was thermally denatured at 95° C. for 5 minutes and then used in SDS-PAGE. The protein was transferred to Immun-Blot™ PVDF Membrane (Bio-Red Laboratories, Inc.) and subjected to blocking and antibody reaction by the procedures given below, and α-Tubulin and Smad3 were detected together using ECL prime western blotting detection system (Amersham plc). […]

Where [2] appears, read: Smad3 inhibitor 10 μM with rosiglitazone 10 μM (7 days) and norepinephrine 1 μM (2 hours), FIG. 8.
Where [3] appears, read: β3 adrenaline receptor activator 1 μM for 2 hours added to rosiglitazone 1 μM and SIS3 10 μM (7 days), FIG. 9.
Setting [4] is: PPARγ activator 1 μM added to SIS3 10 μM (7 days) and norepinephrine 1 μM (2 hours), FIG. 6.

Marks after values point to notes of the source that are not given here.

As to `C[C@H](Cc1ccc2c(c1)OC(C(=O)[O-])(C(=O)[O-])O2)NC[C@H](O)c1cccc(Cl)c1.[Na+].[Na+]` [CL316,243], in experiment [1], the Glucose is listed as 274.9 ± 19.6^a mg/dl, the Insunlin is given as 3.05 ± 0.30^ab ng/ml, the NEFA is on record as 0.92 ± 0.09^a mEq/l and the Total cholesterol is 151.1 ± 4.8^ac mg/dl. The Triglyceride in experiment [1] is on record as 77.2 ± 7.8^ab mg/dl. Further, the Adiponectin in experiment [1] (Rosi 5, SIS3 5, CL316,243 0.1 mg/kg body weight/day) is 36.9 ± 6.9^ab μg/ml.
Consider `NC(=O)c1ccc(-c2nc(-c3ccc4c(c3)OCO4)c(-c3ccccn3)[nH]2)cc1` [SB431542], for which the “expression level of UCP-1” value in the experiment with UCP-1 (setting [2]) was “synergistically increased”.
Consider `COc1cc2c(cc1OC)CN(C(=O)/C=C/c1c(-c3ccccc3)n(C)c3ncccc13)CC2` [SIS3, 6,7-dimethoxy-2-((2E)-3-(1-methyl-2-phenyl-1H-pyrrolo[2,3-b]pyridin-3-yl-prop-2-enoyl))-1,2,3,4-tetrahydroisoquinoline], for which, in the experiment with UCP-1 (setting [2]), the “expression level of UCP-1” value is “synergistically increased”.
Turning to `C[C@H](CCC(=O)O)[C@H]1CC[C@H]2[C@@H]3[C@H](O)C[C@@H]4C[C@H](O)CC[C@]4(C)[C@H]3C[C@H](O)[C@]12C` [cholic acid], at human TGR5, the TGR5-activating action entry is listed as “confirmed to have a TGR5-activating action”.
Still for that read-out and setting: then `CCCCC[C@H](O)CC(=O)CCc1ccc(O)c(OC)c1` [gingerol], with “confirmed to have a TGR5-activating action”.
Regarding `O=c1cc(-c2ccc(O)c(O)c2)oc2cc(O)cc(O)c12` [luteolin], the “TGF-β stimulation-responsive Smad3 hyperphosphorylation (Smad3-inhibiting action)” value in the experiment on Smad3 is on record as “confirmed to have a Smad3-inhibiting action”.
For the compound `Nc1nc(CC(=O)Nc2ccc(CCNC[C@H](O)c3ccccc3)cc2)cs1` [mirabegron], the “expression level of UCP-1” value with UCP-1 (setting [3]) is on record as “synergistically increased”.
On to `NC[C@H](O)c1ccc(O)c(O)c1` [norepinephrine], for which the “expression level of UCP-1” value in the experiment on UCP-1 (setting [3]) is “synergistically increased”.
For `CCc1ccc(CCOc2ccc(CC3SC(=O)NC3=O)cc2)nc1` (stereo not drawn) [pioglitazone], in the experiment on UCP-1 (setting [4]), the “expression level of UCP-1” value is recorded as “synergistically increased”.
Regarding `CN(CCOc1ccc(CC2SC(=O)NC2=O)cc1)c1ccccn1` (stereo not drawn) [rosiglitazone], the “expression level of UCP-1” value with UCP-1 (setting [4]) is recorded as “synergistically increased”.

These data come from US10758519B2, “UCP-1 expression promoter” (Kao Corporation, priority 2014, dated 2020).
